Measured values reported in patent publication US6319898A, “Method for inhibiting eukaryotic protein kinases” (Terragen Diversity, Inc., priority 1998, dated 2001).
Residues, ends and D or L forms follow the SMILES beside them.

Experiments:
Streptomyces 85E = test: Inhibition of sporulation of Streptomyces 85E, filter paper disc on seeded plate; assay type: cell-based, Streptomyces WEC478-85E; details: surfactin in these concentrations (1 to 10 ug on the disc)
Method: In the test assay, material to be tested was applied to a filter paper disk and then placed on a plate which has been freshly seeded with the strain […] test organism. The test organism is then allowed to grow in the presence of the filter paper disk for a period of 24 to 36 hours, after which the organism is evaluated for altered development in the zone around the disk. An observation of an inhibition of the formation of aerial mycelia and spores, without inhibition of the growth of vegetative mycelia is particularly indicative of the presence of an inhibitor of post-translational phosphorylation. Samples of surfactin prepared as described from Bacillus 60A as well as surfactin from Bacillus subtilis with the same molecular weight (1036) obtained from Sigma were tested for their ability to inhibit sporulation of Streptomyces […].

E. coli = test: Growth inhibition of E. coli; assay type: cell-based; details: surfactin in these concentrations (1 to 10 ug on the disc)
Text: (§1) Eventually the inhibition is overcome and the culture sporulates.

S. aureus = test: Growth inhibition of S. aureus; assay type: cell-based; details: surfactin in these concentrations (1 to 10 ug on the disc)
Text: as §1

Human c-Src (p60^c-src) = biological target: T1, Human c-Src (p60^c-src) (Homo sapiens, UniProt P12931); test: c-Src tyrosine kinase ELISA based assay (Pierce), absorbance at 450 nm; assay type: biochemical
T1 construct: purchased Upstate Biotechnology
Method: Human c-Src (p60^c-src) was obtained from Upstate Biotechnology. The activity of the enzyme was assayed in an ELISA based assay developed by Pierce. Following their protocol, 500 ng of a biotinylated peptide substrate in distilled water (Pierce biotinylated peptide substrate #2, sequence Biotin-EGPWLEEEEEAYGWMDF) (SEQ ID NO:2) was added to a NeutrAvidin™ coated well, incubated at 37° C. for 30 minutes to allow binding to the well then washed with Tris-buffered saline (TBS, 25 mM Tris, 0.15 M NaCl, pH 7.6). For each reaction, a reaction buffer mixture was prepared to contain 10 ul of src assay buffer (100 mM Tris-HCl, pH 7.2, 25 mM MnCl2, 2.0 mM EGTA, 0.25 mM Na3 VO4, 125 mM Mg Acetate) 20 ul of ATP/MgCl2 buffer (5 mM ATP, 50 MM MgCl2 in TBS) and 1 ul of protease inhibitor mix (PMSF and pepstatin, final concentrations in Rx: 0.5 mM and 1.5 uM). The src enzyme is supplied at a concentration of 3 units per microliter and dilutions of the kinase were prepared in 1% bovine serum albumin (BSA) in TBS typically to final concentrations of 0.2 or 0.4 units in 10 ul. 10 ul of a solution of a compound to be tested for inhibitory activity was added to the reaction buffer mixture and allowed to stand 10-15 min. at room temperature, then 10 ul of the diluted kinase enzyme was added and the mixture was allowed to stand 10 min. at room temperature before addition to the substrate coated well. The plate was incubated at 30° C. for varying periods of time then the contents were washed out with repeated rinsings with TBS. A mouse monoclonal anti-phosphotyrosine antibody (PY20) conjugated to horseradish peroxidase (Pierce) was diluted 1:2000 in 1% BSA diluent from 1 mg/ml and 75 ul of this dilution was added to each well, incubated 1 hour at 37° C. then washed out with repeated rinsings with TBS.
100 ul of horseradish peroxidase substrate solution (3,3',5,5' tetramethylbenzidine and H2 O2, Pierce TMB-ELISA) was added to each well and after 10 min. the reaction was stopped with the addition of 100 ul of 1 N H2 SO4. Absorbance was read at 450 nm in a Molecular Devices V-max plate reader.
Examples of inhibition detected using this assay: (Values reported are the absorbance readings after subtraction of a blank well containing no enzyme.)

[1] = tested on: Protein Kinase C purified from rat brain; test: Protein Kinase C colorimetric assay (Pierce), absorbance at 570 nm; assay type: biochemical; details: for absorbance read at 570 nm: 10 ng PKC + 10 ug, 30 min at 30° C, control reaction 0.228 (srf), 0.203 (polymyxin B)
Method: Protein Kinase C purified from rat brain was obtained from Upstate Biotechnology. The activity of the enzyme was assayed in a colorimetric assay developed by Pierce. Reaction mixtures were prepared to contain 5 ul each of the 5×reaction buffer, the dye labeled glycogen synthase synthetic peptide substrate reconstituted to 1.77 mM and the 5× activator solution of phosphatidyl-L-serine, all supplied by Pierce in a PKC assay kit. The activator solution was sonicated for 30 sec. on ice prior to use. 1 ul of the kinase (equivalent to 10 ng of enzyme with a specific activity of 12.1 units/mg) was added to 10 ul of a solution containing the compound to be tested for inhibitory activity and allowed to stand at room temperature for 10 minutes then transferred to the reaction tube containing the substrate and incubated 30 min. at 30° C. After incubation 20 ul of each sample was applied to the centre of the affinity membrane in the separation units supplied with the assay kit. These membranes specifically bind the phosphorylated dye labeled substrate while non-phosphorylated peptide will pass through when spun at low speeds. After washing the membranes the phosphorylated peptide was eluted by spinning with the elution buffer and absorbance read at 570 nm in a Molecular Devices V-max plate reader.

T1 sequence (P12931 whole entry): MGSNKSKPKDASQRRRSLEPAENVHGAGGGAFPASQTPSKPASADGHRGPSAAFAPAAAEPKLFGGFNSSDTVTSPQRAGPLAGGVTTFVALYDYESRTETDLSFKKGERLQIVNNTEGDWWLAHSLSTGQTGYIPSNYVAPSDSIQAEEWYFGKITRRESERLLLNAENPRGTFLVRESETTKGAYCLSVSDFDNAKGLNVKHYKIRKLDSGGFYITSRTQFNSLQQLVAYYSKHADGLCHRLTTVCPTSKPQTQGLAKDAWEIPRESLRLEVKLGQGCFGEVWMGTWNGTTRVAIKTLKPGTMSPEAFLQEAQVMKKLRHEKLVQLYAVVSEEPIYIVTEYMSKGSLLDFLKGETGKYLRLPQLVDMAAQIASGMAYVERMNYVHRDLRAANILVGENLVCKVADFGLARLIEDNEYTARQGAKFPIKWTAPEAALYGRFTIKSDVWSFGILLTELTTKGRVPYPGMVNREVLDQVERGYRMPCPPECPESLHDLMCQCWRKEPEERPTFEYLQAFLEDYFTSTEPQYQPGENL

Molecule	inhibition of growth of the vegetative mycelia (Streptomyces 85E)	persistence of the inhibition of aerial mycelia and spore formation after unaffected portions of the culture have sporulated (Streptomyces 85E) [days]	inhibition of growth of E. coli (E. coli)	inhibition of growth of S. aureus (S. aureus)	inhibition of the activity of the tyrosine kinase (Human c-Src (p60^c-src); 100 uM in the reaction)	inhibition of the activity of the tyrosine kinase (Human c-Src (p60^c-src); 200 uM in the reaction (10 ug))	absorbance reading after subtraction of a blank well containing no enzyme (Human c-Src (p60^c-src); 0.05 unit c-Src + 10 ug, 30 min at 30° C, control reaction 0.315)	absorbance reading after subtraction of a blank well containing no enzyme (Human c-Src (p60^c-src); 0.1 unit c-Src + 10 ug, 30 min at 30° C, control reaction 0.391)	absorbance reading after subtraction of a blank well containing no enzyme (Human c-Src (p60^c-src); 0.2 unit c-Src + 5 ug, 5 min at 30° C, control 0.220)	absorbance reading after subtraction of a blank well containing no enzyme (Human c-Src (p60^c-src); 0.2 unit c-Src + 10 ug, 5 min at 30° C, control 0.220)	absorbance reading after subtraction of a blank well containing no enzyme (Human c-Src (p60^c-src); 0.2 unit c-Src + 10 ug, 30 min at 30° C, control reaction 0.396)	absorbance reading after subtraction of a blank well containing no enzyme (Human c-Src (p60^c-src); 0.4 unit c-Src + 10 ug, 30 min at 30° C, control reaction 0.517)	potency against the tyrosine kinase c-Src compared with the serine-threonine kinase PKC (Human c-Src (p60^c-src); conclusion from the c-Src and PKC assays)	absorbance read at 570 nm [1]	inhibition of Protein Kinase C ([1]; 380 uM in the reaction)
CC(C)CCCCCCCCC[C@@H]1CC(=O)N[C@@H](CCC(=O)O)C(=O)N[C@@H](CC(C)C)C(=O)N[C@H](CC(C)C)C(=O)N[C@@H](C(C)C)C(=O)N[C@@H](CC(=O)O)C(=O)N[C@H](CC(C)C)C(=O)N[C@@H](CC(C)C)C(=O)O1 [surfactin] (HELM PEPTIDE1{E.L.[dL].V.D.[dL].L}|CHEM1{[CC(C)CCCCCCCCC[C@H](CC(=O)[*:1])O[*:2]]}$PEPTIDE1,CHEM1,1:R1-1:R1|PEPTIDE1,CHEM1,7:R2-1:R2$$$V2.0)	does not inhibit growth of the vegetative mycelia	3 to 4	does not inhibit growth	does not inhibit growth	has inhibited the activity of the tyrosine kinase tested	has inhibited the activity of the tyrosine kinase tested	0.050	0.093	0.185	0.087	0.191	0.311	more potent inhibitors of the tyrosine kinase tested than this serine-threonine kinase	0.181	only minimally inhibitory
Polymyxin B [reference compound]														0.035	
